The record followed here is PubChem BioAssay (NCI).

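Assay format: 96-well plates, 48-hour exposure. TGI marks complete inhibition of growth.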

Some test systems named below: UACC-62 melanoma; RPMI-8226 leukemia; HCT-15 colon; U251 CNS; NCI-H460 lung; BT-549 breast; T-47D breast; HOP-62 NSCLC; OVCAR-4 ovarian; SF-268 CNS.
What all share (assay): NCI tumour cell line growth inhibition, 48 h

Take `COc1cc(OC)cc(Oc2nc3ccc(C(F)(F)F)cc3nc2-c2ccccc2)c1`: the TGI in the assay with UACC-62 melanoma, in the assay with RPMI-8226 leukemia, in the assay on HCT-15 colon, in the assay on U251 CNS, with NCI-H460 lung and in the assay with BT-549 breast was greater than 100 µM throughout. Besides, the TGI in the assay on T-47D breast, in the assay on HOP-62 NSCLC, in the assay with OVCAR-4 ovarian and with SF-268 CNS was greater than 100 µM throughout.

Regarding `COc1ccc(CC(COS(=O)(=O)c2ccc(C)cc2)NS(=O)(=O)c2ccc(C)cc2)cc1` (stereo not given), the TGI was 43.8 µM in the assay on UACC-62 melanoma; greater than 100 µM in the assay on RPMI-8226 leukemia; 41.1 µM in the assay on HCT-15 colon; 26.2 µM in the assay with U251 CNS; 55.2 µM with NCI-H460 lung; 23.7 µM in the assay with BT-549 breast. Besides, the TGI in the assay on T-47D breast worked out at 21 µM; with HOP-62 NSCLC it was 41.2 µM; with OVCAR-4 ovarian, 41.9 µM; in the assay with SF-268 CNS, 39 µM.

As to `O=C(NNC(=O)c1cc2ccccc2[nH]1)c1cc2ccccc2[nH]1`, the TGI in the assay with UACC-62 melanoma, in the assay on RPMI-8226 leukemia, with HCT-15 colon, in the assay on U251 CNS, in the assay with NCI-H460 lung and in the assay on BT-549 breast was greater than 100 µM each time. The TGI in the assay with T-47D breast, with HOP-62 NSCLC, in the assay on OVCAR-4 ovarian and with SF-268 CNS was greater than 100 µM in each case.

For `COC(=O)[C@@H](N1C(=O)c2ccccc2C1=O)C1(C)CC(Cl)=NO1` (stereo not given in full), the TGI was greater than 100 µM in the assay with UACC-62 melanoma; greater than 100 µM with RPMI-8226 leukemia; greater than 100 µM in the assay with HCT-15 colon; 77.2 µM with U251 CNS; greater than 100 µM in the assay with NCI-H460 lung; greater than 100 µM with BT-549 breast. Further, the TGI in the assay with T-47D breast was greater than 100 µM; in the assay with HOP-62 NSCLC, 38.9 µM; in the assay on OVCAR-4 ovarian, greater than 100 µM; in the assay with SF-268 CNS, 76.9 µM.

Turning to `COc1cc(N(CCC#N)CCC#N)ccc1/C(N=Nc1cccc([N+](=O)[O-])c1)=N\NC(=O)c1ccc(C)cc1`, the TGI is greater than 100 µM in the assay on UACC-62 melanoma; greater than 100 µM in the assay with RPMI-8226 leukemia; greater than 100 µM in the assay with HCT-15 colon; greater than 100 µM with U251 CNS; 70.5 µM in the assay on NCI-H460 lung; greater than 100 µM with BT-549 breast. Further, the TGI in the assay with T-47D breast, with HOP-62 NSCLC, with OVCAR-4 ovarian and in the assay with SF-268 CNS was greater than 100 µM throughout.

`Cc1c(CNc2ccc(Cl)c(Cl)c2Cl)cnc2nc(N)nc(N)c12`: the TGI in the assay on UACC-62 melanoma was 15.8 µM; with RPMI-8226 leukemia, 49 µM; in the assay on HCT-15 colon it was greater than 100 µM; in the assay on U251 CNS, greater than 46.5 µM; in the assay with NCI-H460 lung it was greater than 48.9 µM; in the assay on BT-549 breast, 50.8 µM. The TGI in the assay with T-47D breast was 24.9 µM; in the assay on HOP-62 NSCLC, greater than 43.5 µM; with OVCAR-4 ovarian it was 31.1 µM; with SF-268 CNS, greater than 45.5 µM.

With `O=c1oc2cc(O)ccc2c(O)c1C(c1ccc(/C=C/c2ccccc2)cc1)c1c(O)c2ccc(O)cc2oc1=O`, the TGI with UACC-62 melanoma, with RPMI-8226 leukemia, in the assay with HCT-15 colon, with U251 CNS, in the assay on NCI-H460 lung and with BT-549 breast was greater than 100 µM each time. The TGI with T-47D breast, in the assay with HOP-62 NSCLC, in the assay on OVCAR-4 ovarian and with SF-268 CNS was greater than 100 µM throughout.

Consider `CCOC(=O)n1c(=O)nc2c3c(ncn21)Oc1c(c(-c2ccccc2)nn1-c1ccccc1)C3c1ccc(Cl)cc1` (stereo not given), for which the TGI was found to be 3.1 µM in the assay with UACC-62 melanoma; 3.3 µM in the assay on RPMI-8226 leukemia; 2.4 µM in the assay with HCT-15 colon; 3.06 µM with U251 CNS; 3.21 µM with NCI-H460 lung; 2.95 µM in the assay on BT-549 breast. Also, the TGI with T-47D breast came out at 3.15 µM; in the assay on HOP-62 NSCLC, 3.15 µM; in the assay on OVCAR-4 ovarian, 2.47 µM; with SF-268 CNS, 2.92 µM.

Regarding `CC(C)=CCN1c2ccccc2[C@@]2(CC=C(C)C)CCN(C)[C@@H]12`, the TGI with UACC-62 melanoma is 34.8 µM; in the assay on RPMI-8226 leukemia, 51 µM; in the assay on HCT-15 colon, greater than 100 µM; with U251 CNS it was 40.5 µM; in the assay on NCI-H460 lung it was 30.4 µM; in the assay with BT-549 breast, greater than 100 µM. Moreover, the TGI in the assay with T-47D breast was 50.3 µM; in the assay with HOP-62 NSCLC, 55 µM; in the assay with OVCAR-4 ovarian, greater than 100 µM; in the assay on SF-268 CNS, greater than 100 µM.

Regarding `O=C(O)CN1CCN2CCOCCN(CC1)CCN(CC(=O)O)CC2`, the TGI in the assay with UACC-62 melanoma, in the assay on RPMI-8226 leukemia, in the assay on HCT-15 colon, in the assay on U251 CNS, with NCI-H460 lung and in the assay on BT-549 breast was greater than 100 µM in each case. Besides, the TGI in the assay with T-47D breast, in the assay with HOP-62 NSCLC, in the assay on OVCAR-4 ovarian and with SF-268 CNS was greater than 100 µM throughout.

In the case of `CC(C)C1CC(CO)(CNc2nc(N)nc(Cl)c2C=O)C1` (stereo not given), the TGI with UACC-62 melanoma was 4.11 µM; with RPMI-8226 leukemia, greater than 100 µM; with HCT-15 colon it was 32.1 µM; in the assay on U251 CNS it was 10.6 µM; in the assay on NCI-H460 lung, 31.9 µM; in the assay on BT-549 breast, 52.2 µM. Moreover, the TGI is greater than 100 µM with T-47D breast, 37 µM with HOP-62 NSCLC, 10.9 µM in the assay on OVCAR-4 ovarian and greater than 23.7 µM in the assay with SF-268 CNS.
